Results published in patent US7368430B2, “Selective inhibitors of nuclear factor-κB activation and uses thereof” (Research Development Foundation, priority 2003, dated 2008).
Where a SMILES comes first, the peptide text is derived from it.

Assays:
[1] = system: KBM-5 cells; experiment: Cytotoxicity assay (MTT assay); type: cell-based; details: 100 μM peptide; for effect on TNF-induced cytotoxicity (MTT): KBM-5 cells, TNF 72 h (FIG. 7A)
Experimental: Five thousand KBM-5 cells were seeded in triplicate in 96-well plates. Cells were pretreated with 100 μM PTD-p65-P1, and then incubated with the indicated concentrations of TNF for 72 hour. Thereafter, cell viability was analyzed by MTT assay.
Five thousand cells were seeded in triplicate in 96-well plates. Cells were pretreated with 100 μM protein transduction domain-p65-P1 and then incubated with indicated concentrations of TNF or doxorubicin or cisplatin for 72 hr. Thereafter, cell viability was analyzed by the MTT method.
The cytotoxic effects of […] were determined by the MTT uptake method as described (Manna et al., 2000a). Briefly, 5000 cells were incubated with synthetic peptides for 1 hour in triplicate in 96-well plates, and then treated with various concentration of TNF for 72 hours at 37° C. Thereafter, MTT solution was added to each well. After a 2-hr incubation at 37° C., extraction buffer (20% SDS, 50% dimethylformamide) was added, the cells were incubated overnight at 37° C., and then the OD was measured at 570 nm using a 96-well multiscanner (Dynex Technologies, MRX Revelation; Chantilly, Va.).

[2] = system: NF-κB; experiment: EMSA of NF-κB activation in KBM-5 cells preincubated with peptides; type: cell-based; details: various concentrations of peptides 1 h, 0.1 nM TNF 30 min (FIG. 3C)
Experimental: NF-κB activation was examined by electrophoretic mobility shift assays as described (Chaturvedi et al., 1994; Takada and Aggarwal). Briefly, nuclear extracts prepared from TNF-treated cells (1×10^6/ml) were incubated with ^32P-end-labeled 45-mer double-stranded NF-κB oligonucleotide (10 ug of protein with 16 fmol of DNA) from the human immunodeficiency virus long terminal repeat, 5′-[…] CAGGGAGGCGTGG-3′ (SEQ ID NO. 1, boldface indicates NF-κB binding sites) for 30 min at 37° C., and the DNA-protein complex formed was separated from free oligonucleotide on 6.6% native polyacrylamide gels. […]
To determine the effects of peptide containing Ser 276 (PTD-p65-P1), KBM-5 cells was preincubated with the peptides for 1 h, and then treated with 0.1 nM TNF for the indicated times. Nuclear extracts were prepared, and NF-κB activation was analyzed by electrophoretic mobility shift assays (EMSA). […]
Lipopolysaccharide, IL-1, okadaic acid, PMA, H2O2, and cigarette smoke condensate are potent activators of NF-κB, but the mechanisms differ. […] Cells were preincubated with 150 μM protein transduction domain-p65-P1 for 1 h, treated with 0.1 nM TNF, 1 μg/ml LPS, 100 ng/ml IL-1, 500 nM okadaic acid, 10 ng/ml PMA, 500 μM H2O2, or 1 μg/ml cigarette smoke condensate and then analyzed for NF-κB activation by EMSA.

[3] = target: T1, NF-κB (p50-p65) binding to DNA (Homo sapiens, UniProt Q04206); experiment: EMSA of NF-κB binding to DNA, nuclear extracts of TNF-treated cells incubated with peptides in vitro; type: biochemical; details: nuclear extracts of TNF-treated KBM-5 cells incubated 30 min with peptides (FIG. 2A)
T1 construct: endogenous in cells; host or cells: KBM-5 cells, TNF-treated, nuclear extract
Experimental: Nuclear extracts were prepared from TNF-treated cells, incubated for 30 min with various concentrations of peptides, and then assayed for NF-κB activation by EMSA.
NF-κB activation was examined by electrophoretic mobility shift assays as described (Chaturvedi et al., 1994; Takada and Aggarwal). Briefly, nuclear extracts prepared from TNF-treated cells (1×10^6/ml) were incubated with ^32P-end-labeled 45-mer double-stranded NF-κB oligonucleotide (10 ug of protein with 16 fmol of DNA) from the human immunodeficiency virus long terminal repeat, 5′-[…] CAGGGAGGCGTGG-3′ (SEQ ID NO. 1, boldface indicates NF-κB binding sites) for 30 min at 37° C., and the DNA-protein complex formed was separated from free oligonucleotide on 6.6% native polyacrylamide gels. A double-stranded mutated oligonucleotide, 5′-[…]-3′(SEQ ID NO. 2) was used to examine the specificity of binding of NF-κB to the DNA. The specificity of binding was also examined by competition with unlabeled oligonucleotide.
The dose-dependent effect of protein transduction domain-p65-P1 and p65-P1 on p50-p65 binding to DNA was investigated. […] The protein transduction domain alone had no effect.

[4] = target: T2, IKK complex (Homo sapiens, UniProt O14920+O15111); experiment: Cell-free phosphorylation of p65 peptides by immunoprecipitated IKK complex; type: biochemical; details: 10 μg of peptides as substrate (FIG. 5C)
T2 construct: Whole-cell extracts were prepared from TNF-treated cells and immunoprecipitated with antibody against IKK-α; endogenous in cells
Experimental: Whole-cell extracts were prepared from TNF-treated cells and immunoprecipitated with antibody against IKK-α. Thereafter immunocomplex kinase assay was performed in the presence of the peptides as a substrate.
To determine the total amounts of IKK-α and IKK-β in each sample, […] of the whole-cell protein was resolved on 7.5% SDS-PAGE, electrotransferred to a nitrocellulose membrane, and then blotted with either anti-IKK-α or anti-IKK-β antibodies. Cell-free phosphorylation of peptide by IKK was also determined using 10 μg of peptides as a substrate in the kinase reaction mixture described above, and then fractionated on 20% SDS-PAGE in 2×SDS electrophoresis buffer.
p65-P1 and p65-p6 have one or two serine residues respectively. Whether these serine residues can be phosphorylated by IKK was investigated. Whole-cell extracts from TNF-treated cells were immunoprecipitated with antibody against IKK and then immunocomplex kinase assay was performed using p65-peptides as substrates. After reaction, samples were fractionated on 20% SDS-PAGE with 2-fold electrophoresis buffer.

T1 sequence (Q04206 whole entry): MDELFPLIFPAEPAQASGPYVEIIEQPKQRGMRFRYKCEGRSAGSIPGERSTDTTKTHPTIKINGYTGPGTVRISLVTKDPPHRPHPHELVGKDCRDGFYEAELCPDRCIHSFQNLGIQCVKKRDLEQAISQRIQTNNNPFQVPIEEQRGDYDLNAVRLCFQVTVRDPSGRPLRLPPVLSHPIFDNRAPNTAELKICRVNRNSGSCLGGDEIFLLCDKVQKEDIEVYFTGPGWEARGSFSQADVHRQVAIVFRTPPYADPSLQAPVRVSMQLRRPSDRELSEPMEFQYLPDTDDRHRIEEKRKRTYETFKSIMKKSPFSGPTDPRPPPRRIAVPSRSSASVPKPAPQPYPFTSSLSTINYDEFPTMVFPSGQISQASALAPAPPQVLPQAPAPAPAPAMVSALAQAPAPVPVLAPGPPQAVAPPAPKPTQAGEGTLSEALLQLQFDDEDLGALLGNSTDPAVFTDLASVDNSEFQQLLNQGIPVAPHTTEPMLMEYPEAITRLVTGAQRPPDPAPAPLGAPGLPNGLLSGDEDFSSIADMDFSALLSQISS
T2 sequence (O15111 whole entry): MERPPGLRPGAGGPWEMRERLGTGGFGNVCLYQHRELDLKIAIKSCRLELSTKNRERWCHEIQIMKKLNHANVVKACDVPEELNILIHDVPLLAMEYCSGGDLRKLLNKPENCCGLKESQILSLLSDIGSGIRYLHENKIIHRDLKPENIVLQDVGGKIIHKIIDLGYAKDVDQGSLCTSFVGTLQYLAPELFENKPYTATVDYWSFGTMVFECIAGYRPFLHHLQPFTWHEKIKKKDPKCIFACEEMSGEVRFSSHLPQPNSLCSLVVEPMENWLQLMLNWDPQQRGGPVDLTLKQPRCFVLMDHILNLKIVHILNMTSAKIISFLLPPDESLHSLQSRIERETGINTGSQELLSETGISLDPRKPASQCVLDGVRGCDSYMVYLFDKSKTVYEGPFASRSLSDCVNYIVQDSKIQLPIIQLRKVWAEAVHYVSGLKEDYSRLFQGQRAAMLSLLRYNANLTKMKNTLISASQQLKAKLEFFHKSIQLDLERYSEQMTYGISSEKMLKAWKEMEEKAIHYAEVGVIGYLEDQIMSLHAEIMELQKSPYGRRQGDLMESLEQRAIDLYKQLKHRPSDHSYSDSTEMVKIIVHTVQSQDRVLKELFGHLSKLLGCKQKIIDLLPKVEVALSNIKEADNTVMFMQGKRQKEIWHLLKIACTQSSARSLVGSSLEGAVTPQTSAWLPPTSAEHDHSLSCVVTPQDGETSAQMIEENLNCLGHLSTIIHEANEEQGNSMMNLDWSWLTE
T2 sequence (O14920 whole entry): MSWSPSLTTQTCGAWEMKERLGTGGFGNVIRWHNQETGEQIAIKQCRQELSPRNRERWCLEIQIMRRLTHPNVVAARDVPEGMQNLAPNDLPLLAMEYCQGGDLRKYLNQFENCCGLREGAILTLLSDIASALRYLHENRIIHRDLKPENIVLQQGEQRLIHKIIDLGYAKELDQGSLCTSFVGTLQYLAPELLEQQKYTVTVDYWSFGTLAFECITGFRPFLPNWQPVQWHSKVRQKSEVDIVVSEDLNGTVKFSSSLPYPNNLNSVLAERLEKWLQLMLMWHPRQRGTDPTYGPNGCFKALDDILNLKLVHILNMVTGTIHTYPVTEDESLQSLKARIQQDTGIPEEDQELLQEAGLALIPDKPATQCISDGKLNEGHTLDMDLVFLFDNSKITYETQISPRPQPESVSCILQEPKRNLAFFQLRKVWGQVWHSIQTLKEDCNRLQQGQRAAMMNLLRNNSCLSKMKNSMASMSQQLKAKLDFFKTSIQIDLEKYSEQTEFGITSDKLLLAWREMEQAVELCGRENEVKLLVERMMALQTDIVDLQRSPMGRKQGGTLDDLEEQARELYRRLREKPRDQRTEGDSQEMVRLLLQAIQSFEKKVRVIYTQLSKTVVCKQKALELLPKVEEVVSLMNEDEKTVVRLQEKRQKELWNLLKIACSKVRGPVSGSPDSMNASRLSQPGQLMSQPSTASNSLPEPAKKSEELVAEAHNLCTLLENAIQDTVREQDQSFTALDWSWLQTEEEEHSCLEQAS
T2 sequence (Q9Y6K9 whole entry partner): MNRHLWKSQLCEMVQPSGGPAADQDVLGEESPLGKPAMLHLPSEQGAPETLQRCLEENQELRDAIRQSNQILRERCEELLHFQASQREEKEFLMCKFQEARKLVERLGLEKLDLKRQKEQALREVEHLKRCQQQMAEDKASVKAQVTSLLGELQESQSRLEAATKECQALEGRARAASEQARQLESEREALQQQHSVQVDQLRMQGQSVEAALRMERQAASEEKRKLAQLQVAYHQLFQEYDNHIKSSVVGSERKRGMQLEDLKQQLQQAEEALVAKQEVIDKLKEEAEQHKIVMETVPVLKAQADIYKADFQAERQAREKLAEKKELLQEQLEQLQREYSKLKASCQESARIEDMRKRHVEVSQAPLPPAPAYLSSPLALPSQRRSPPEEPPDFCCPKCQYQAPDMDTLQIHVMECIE

Compound	effect on TNF-induced cytotoxicity (MTT) [1]	inhibition of NF-κB binding to the DNA in vitro [3]	further results
CC[C@H](C)[C@H](NC(=O)[C@H](CCCCN)NC(=O)[C@@H](NC(=O)[C@H](CCC(N)=O)NC(=O)[C@H](CCCNC(=N)N)NC(=O)[C@@H](N)CC(=O)O)[C@@H](C)CC)C(=O)N[C@@H](Cc1c[nH]c2ccccc12)C(=O)N[C@@H](Cc1ccccc1)C(=O)N[C@@H](CCC(N)=O)C(=O)N[C@@H](CC(N)=O)C(=O)N[C@@H](CC(N)=O)C(=O)N[C@@H](CCCNC(=N)N)C(=O)N[C@@H](CCCNC(=N)N)C(=O)N[C@@H](CCSC)C(=O)N[C@@H](CCCCN)C(=O)N[C@@H](Cc1c[nH]c2ccccc12)C(=O)N[C@@H](CCCCN)C(=O)N[C@@H](CCCCN)C(=O)N[C@@H](CCC(N)=O)C(=O)N[C@@H](CC(C)C)C(=O)N[C@@H](CCCNC(=N)N)C(=O)N[C@@H](CCCNC(=N)N)C(=O)N1CCC[C@H]1C(=O)N[C@@H](CO)C(=O)N[C@@H](CC(=O)O)C(=O)N[C@@H](CCCNC(=N)N)C(=O)N[C@@H](CCC(=O)O)C(=O)N[C@@H](CC(C)C)C(=O)N[C@@H](CO)C(=O)N[C@@H](CCC(=O)O)C(=O)O [PTD-p65-P1] (H-DRQIKIWFQNNRRMKWKKQLRRPSDRELSE-OH)	enhanced TNF-induced cytotoxicity	–	effect on cisplatin-induced cytotoxicity (MTT) ([1]; cisplatin 72 hr (FIG. 7D bottom panel)): potentiated; effect on doxorubicin-induced cytotoxicity (MTT) ([1]; doxorubicin 72 hr (FIG. 7D top panel)): potentiated
CC(C)C[C@H](NC(=O)[C@H](CCC(=O)O)NC(=O)[C@H](CCCNC(=N)N)NC(=O)[C@H](CC(=O)O)NC(=O)[C@H](CO)NC(=O)[C@@H]1CCCN1C(=O)[C@H](CCCNC(=N)N)NC(=O)[C@H](CCCNC(=N)N)NC(=O)[C@H](CC(C)C)NC(=O)[C@@H](N)CCC(N)=O)C(=O)N[C@@H](CO)C(=O)N[C@@H](CCC(=O)O)C(=O)O [p65-P1, QLRRPSDRELSE] (H-QLRRPSDRELSE-OH)	had no effect	–	–
CC[C@H](C)[C@H](NC(=O)[C@H](CCCCN)NC(=O)[C@@H](NC(=O)[C@H](CCC(N)=O)NC(=O)[C@H](CCCNC(=N)N)NC(=O)[C@@H](N)CC(=O)O)[C@@H](C)CC)C(=O)N[C@@H](Cc1c[nH]c2ccccc12)C(=O)N[C@@H](Cc1ccccc1)C(=O)N[C@@H](CCC(N)=O)C(=O)N[C@@H](CC(N)=O)C(=O)N[C@@H](CC(N)=O)C(=O)N[C@@H](CCCNC(=N)N)C(=O)N[C@@H](CCCNC(=N)N)C(=O)N[C@@H](CCSC)C(=O)N[C@@H](CCCCN)C(=O)N[C@@H](Cc1c[nH]c2ccccc12)C(=O)N[C@@H](CCCCN)C(=O)N[C@@H](CCCCN)C(=O)O [protein transduction domain, reference compound] (H-DRQIKIWFQNNRRMKWKK-OH)	had no effect	–	–
PTD-p65-P6: SEQ ID NO. 10; antennapedia protein transduction domain linked to amino acid 525-537 of the p65 subunit (DRQIKIWFQNNRRMKWKKNGLLSGDEDFSS; CHAIN PTD-p65-P6, cell permeable NF-kb inhibitor)	–	–	effect on TNF-induced NF-κB activation (EMSA, dose response) [2]: inhibited TNF-induced NF-κB activation in a dose dependent manner
p65-P2: Peptide in which Ser 276 was mutated (QLRRPADRELSE; CHAIN p65-P2, mutated peptide derived from the p65 subunit of NF-kB)	–	did not inhibit	–
p65-P4: Peptide in which five amino acid residues were deleted from the C-terminus (QLRRPSD; CHAIN p65-P4, mutated peptide derived from the p65 subunit of NF-kB)	–	inactive	–
p65-P5: Peptide in which three amino acid residues were deleted from the N-terminus (RPSDRELSE; CHAIN p65-P5, mutated peptide derived from the p65 subunit of NF-kB)	–	inactive	–
p65-P6: SEQ ID NO. 11; p65 peptide containing Ser 529 and 536, amino acid 525-537 of the p65 subunit (NGLLSGDEDFSS; CHAIN p65-P6, peptide derived from the p65 subunit of NF-kB)	–	–	phosphorylation of the peptide by IKK complex [4]: can phosphorylate; effect on TNF-induced NF-κB activation (EMSA, dose response) [2]: Neither a protein transduction domain nor p65-P6 alone had any effect
p65-P7: Peptide in which Ser 529 was mutated (NGLLAGDEDFSS; CHAIN p65-P7, mutated peptide derived from the p65 subunit of NF-kB)	–	did not inhibit	–
p65-p8: Peptide in which Ser 536 was mutated (NGLLSGDEDFSA; CHAIN p65-P8, mutated peptide derived from the p65 subunit of NF-kB)	–	did not inhibit	–
